Here are results for four compounds from patent US11925655B2, “FAP-activated therapeutic agents, and uses related thereto” (Bach Biosciences, LLC, priority 2014, dated 2024).

Data set [1] has as its target T1, PREP (Homo sapiens, UniProt P48147).
T1 sequence (P48147 1-710): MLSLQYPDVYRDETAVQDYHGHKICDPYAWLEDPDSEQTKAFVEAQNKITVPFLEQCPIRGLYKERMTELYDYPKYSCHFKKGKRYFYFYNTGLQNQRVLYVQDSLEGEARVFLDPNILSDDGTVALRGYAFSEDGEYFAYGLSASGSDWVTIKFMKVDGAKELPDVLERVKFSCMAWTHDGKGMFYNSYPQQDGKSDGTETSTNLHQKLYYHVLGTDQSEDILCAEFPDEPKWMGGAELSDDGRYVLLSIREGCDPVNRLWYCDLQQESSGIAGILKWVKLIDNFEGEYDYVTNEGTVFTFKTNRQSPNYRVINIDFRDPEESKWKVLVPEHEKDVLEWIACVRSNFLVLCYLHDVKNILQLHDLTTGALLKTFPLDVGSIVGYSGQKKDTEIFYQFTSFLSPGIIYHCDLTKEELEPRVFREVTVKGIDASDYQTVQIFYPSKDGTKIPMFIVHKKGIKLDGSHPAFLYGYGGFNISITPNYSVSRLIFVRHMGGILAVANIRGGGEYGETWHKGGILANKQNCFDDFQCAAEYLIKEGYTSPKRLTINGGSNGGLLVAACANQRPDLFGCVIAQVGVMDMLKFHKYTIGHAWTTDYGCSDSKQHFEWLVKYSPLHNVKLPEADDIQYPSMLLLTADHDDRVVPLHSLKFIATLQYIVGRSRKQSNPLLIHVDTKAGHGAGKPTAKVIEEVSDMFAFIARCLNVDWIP
Nature of the data set: Specificity of activation: digest with PREP. Type of data set: biochemical. As to conditions: 100 μM prodrug, 24 hours at 37° C. As for the experimental part: (§1) Total doxorubicin was measured for each assay.

Data set [2] has as its system CT26 cells. Nature of the data set: CellTiter-Blue cell viability assay with CT26 cells. As to conditions: Mus musculus. Type of data set: cell-based.
For data set [3], the target named is T2, FAP (Homo sapiens, UniProt Q12884).
T2 sequence (Q12884 1-760): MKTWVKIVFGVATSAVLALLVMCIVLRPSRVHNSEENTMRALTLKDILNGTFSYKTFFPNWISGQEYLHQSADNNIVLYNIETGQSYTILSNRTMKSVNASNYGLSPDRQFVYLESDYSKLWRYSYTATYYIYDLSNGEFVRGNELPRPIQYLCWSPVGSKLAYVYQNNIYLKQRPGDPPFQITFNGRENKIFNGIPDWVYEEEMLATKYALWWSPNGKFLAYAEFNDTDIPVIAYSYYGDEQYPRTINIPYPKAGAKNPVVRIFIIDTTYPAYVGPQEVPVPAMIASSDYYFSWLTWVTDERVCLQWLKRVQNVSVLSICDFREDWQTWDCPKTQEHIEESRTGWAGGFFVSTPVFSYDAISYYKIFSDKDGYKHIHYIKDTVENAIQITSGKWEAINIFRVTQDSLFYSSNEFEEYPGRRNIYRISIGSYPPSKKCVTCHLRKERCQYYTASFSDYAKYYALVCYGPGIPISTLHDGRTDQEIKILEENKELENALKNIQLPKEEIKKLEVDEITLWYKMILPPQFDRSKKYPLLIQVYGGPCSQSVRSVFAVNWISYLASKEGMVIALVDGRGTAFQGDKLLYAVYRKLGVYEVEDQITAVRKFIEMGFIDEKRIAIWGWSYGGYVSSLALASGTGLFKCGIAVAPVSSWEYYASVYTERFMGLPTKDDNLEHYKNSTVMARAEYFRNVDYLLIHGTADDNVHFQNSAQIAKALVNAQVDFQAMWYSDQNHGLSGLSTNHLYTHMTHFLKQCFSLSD
Nature of the data set: Specificity of activation: digest with FAP. Type of data set: biochemical. As to conditions: 100 μM prodrug, 24 hours at 37° C. The procedure:
as §1

For data set [4], the target named is dipeptidyl peptidase IV (DPP IV) (Homo sapiens, UniProt P27487). Nature of the data set: Specificity of activation: digest with DPP IV. The format is biochemical. To be noted: 100 μM prodrug, 24 hours at 37° C. The procedure: as §1
dipeptidyl peptidase IV (DPP IV), sequence (P27487 whole entry, species assumed): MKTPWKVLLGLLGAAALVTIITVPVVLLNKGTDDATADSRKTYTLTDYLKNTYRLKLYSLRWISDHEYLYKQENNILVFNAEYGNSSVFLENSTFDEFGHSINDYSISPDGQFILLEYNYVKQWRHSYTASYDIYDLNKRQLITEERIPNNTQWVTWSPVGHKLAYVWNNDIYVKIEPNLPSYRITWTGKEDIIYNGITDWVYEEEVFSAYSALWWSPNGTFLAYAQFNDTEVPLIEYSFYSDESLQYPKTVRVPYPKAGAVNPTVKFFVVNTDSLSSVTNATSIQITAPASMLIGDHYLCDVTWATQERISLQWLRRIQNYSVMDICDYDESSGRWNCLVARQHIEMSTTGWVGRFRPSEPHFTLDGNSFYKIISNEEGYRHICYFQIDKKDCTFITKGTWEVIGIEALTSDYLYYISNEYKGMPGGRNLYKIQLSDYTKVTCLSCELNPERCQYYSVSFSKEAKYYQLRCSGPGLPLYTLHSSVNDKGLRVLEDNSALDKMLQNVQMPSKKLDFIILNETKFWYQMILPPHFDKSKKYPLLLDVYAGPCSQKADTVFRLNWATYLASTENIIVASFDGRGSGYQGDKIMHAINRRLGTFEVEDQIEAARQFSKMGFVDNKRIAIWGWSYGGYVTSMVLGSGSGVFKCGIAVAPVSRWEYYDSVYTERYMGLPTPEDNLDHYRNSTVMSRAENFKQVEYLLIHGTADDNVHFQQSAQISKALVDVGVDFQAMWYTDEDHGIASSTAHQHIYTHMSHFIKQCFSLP
For data set [5], the system named is HEK-mFAP cells. Nature of the data set: CellTiter-Blue cell viability assay with HEK-mFAP cells. The format is cell-based, human. As to conditions: Homo sapiens, 5107DOX assay, 72 hour incubation.
Data set [6] can be described thus: Stability in mouse muscle lysate. As to conditions: 100 μM prodrug, 37° C., 12 h.
Data set [7] relates to COc1cccc2c1C(=O)c1c(O)c3c(c(O)c1C2=O)C[C@@](O)(C(=O)CO)C[C@@H]3OC1CC(NC(=O)[C@@H]2CCCN2C(=O)[C@@H](C)NC(=O)c2ccncc2)C(O)C(C)O1. Type of data set: biochemical. As to conditions: other: 1.34×10^−8 M FAP, 37° C., pH 7.5. As for the experimental part: Michaelis-Menten enzyme kinetics for FAP were measured using a SpectraMax M2e microplate reader (Molecular Devices, Sunnyvale, CA, USA). The assays were performed in FAP buffer (50 mM Tris, 140 mM NaCl, pH 7.5) at 25° C., and the fluorescence continuously monitored at excitation and emission wavelengths of 380 and 460 nm, respectively. Kinetic constants (kcat and Km) were determined using GP-AMC (Bachem, Torrance, CA, USA), Ac-(D)-AP-AFC (MP Biomedicals, Solon, OH, USA) and test article concentrations equivalent to 0.1-5 times their respective Km values, and with 5-10 nM enzyme. All assays were performed in triplicate, and the results were calculated with a nonlinear regression analysis, relying on a Michaelis-Menten curve fit using GraphPad software.
3099DOX at various concentrations ranging from 8.5×10^−6 M to 6.9×10^−4 M was incubated with 1.34×10^−8 M FAP or PREP at 37° C., and released doxorubicin measured.

For data set [8], the system named is COc1cccc2c1C(=O)c1c(O)c3c(c(O)c1C2=O)C[C@@](O)(C(=O)CO)C[C@@H]3OC1CC(NC(=O)[C@@H]2CC(F)(F)CN2C(=O)CNC(=O)c2ccnc3ccccc23)C(O)C(C)O1. Nature of the data set: FAP digest of 5057DOX (kinetics). The format is biochemical.
Where [9] appears, read: other: 5057DOX assay 6, [FAP] 4.00 × 10^−9M.
Where [10] appears, read: other: 5057DOX assay 7, [FAP] 1 nM.

Read-outs that look alike come from different tables or passages of the source. Bounds are passed on as bounds.

Turning to `COc1cccc2c1C(=O)c1c(O)c3c(c(O)c1C2=O)C[C@@](O)(C(=O)CO)C[C@@H]3OC1CC(NC(=O)[C@@H]2CCCN2C(=O)[C@@H](C)NC(=O)[C@H](CO)NC(=O)CCC(=O)O)C(O)C(C)O1` (stereo partly shown) [Compound 3996DOX], in data set [1], the “doxorubicin released by PREP” value was “essentially none”. Moreover, the concentration giving a half-maximal response (EC50) was 26 µM in data set [2] (read-out: EC50 (prodrug + 50 nM FAP)), 210 µM in data set [2] (read-out: EC50 (prodrug + 50 nM PREP)) and 190 µM in data set [2] (read-out: EC50 (prodrug alone)). Further, the “doxorubicin released by FAP, relative amount” value in data set [3] (as much doxorubicin as from the other prodrugs) was “about 15%”. For the same compound, the “doxorubicin released by DPP IV” value in data set [4] was “essentially none”.

`COc1cccc2c1C(=O)c1c(O)c3c(c(O)c1C2=O)C[C@@](O)(C(=O)CO)C[C@@H]3OC1CC(NC(=O)[C@@H]2CC(F)(F)CN2C(=O)[C@@H](C)NC(=O)c2ccnc3ccccc23)C(O)C(C)O1` (stereo partly shown) [Compound 5107DOX]: the results for the EC50 in data set [5] (read-out: EC50 (prodrug + 100 uM 5057-2)) and in data set [5] (read-out: EC50 (prodrug alone)) were above 100 µM and 0.94 µM, respectively.

`COc1cccc2c1C(=O)c1c(O)c3c(c(O)c1C2=O)C[C@@](O)(C(=O)CO)C[C@@H]3O[C@H]1C[C@H](NC(=O)[C@@H]2CCCN2C(=O)CNC(=O)OCc2ccccc2)[C@H](O)[C@H](C)O1` [z-GP-DOX, reference compound]: the “doxorubicin released in mouse muscle lysate” value in data set [6] is listed as “a large amount of doxorubicin”. Further, in data set [1], the “doxorubicin released by PREP” value is listed as “A similar amount of doxorubicin was released”. The “doxorubicin released by FAP” value in data set [3] is “A similar amount of doxorubicin was released”. The “doxorubicin released by DPP IV” value in data set [4] is “essentially none”.

Consider FAP (Homo sapiens), for which, in data set [7], the Km worked out at 11.2 µM, the Vmax was 5.877e-09 M/s, the kcat amounted to 0.44 s⁻¹ and the kcat/Km was 39171 M⁻¹ s⁻¹. For the same compound, in data set [8] (setting [9]), the Km result was “Km 1.11 × 10^−5M M”, the Vmax entry is listed as “Vmax 5.19 × 10^−9M/sec M/sec” and the kcat/Km result is given as “kcat/Km 1.17 × 10^5M^−1sec^−1 M^−1sec^−1”. Besides, in data set [8] (setting [10]), the Km entry is “Km 4.85 × 10^−6M M”, the kcat result is listed as “Kcat 0.98 sec^−1 sec^−1” and the kcat/Km entry was “Kcat/Km 2.00 × 10^5M^−1 sec^−1 M^−1 sec^−1”.
